From US20200308539A1, “AFFINITY-TAGGED PHOTOSWITCHES AND METHODS OF USE THEREOF” (The Regents of the University of California, priority 2017, published 2020)

Experiments:
[1] = target: T1, mGluR5 (Homo sapiens, UniProt P41594); assay: Calcium waves (FLUO-4) in HEK293 cells expressing mGluR5; assay type: cell-based; details: HEK293 cells expressing mGluR5, FLUO-4
T1 construct: expressed in transfected cells; host or cells: HEK293 cells
Experimental: (§1) However, the goal was to target the native, unmodified proteins in cells, tissues or the intact organism, and this would require the affinity moiety to attach directly to the target protein, something that could impact function of the target protein. […] This notion was tested by asking whether there would be a functional impact of nanobody binding to an mGluR. For this purpose, mGluR5 was selected. mGluR5 is a Gq-coupled receptor whose activation stimulates phospholipase C to generate IP3 and trigger the release of calcium from internal stores, which could detect with the calcium indicator FLUO-4 that was loaded into the cells in its AM ester form. […] The activation of the receptor by NB-8260 could be directly detected using single molecule fluorescence resonance energy transfer (smFRET). SNAP-mGluR5 dimers labeled in HEK293 cells with a mixture of FRET donor and acceptor (green and red) BG dyes were isolated by cell lysis and immune-purified and immobilized at low density on a passivated glass surface (FIG. 6A) for total internal reflection fluorescence (TRIF) microscopy. Individual spots containing both the green and red dye (i.e. one on each subunit of the dimer) were selected for analysis and FRET levels measured: i) in the absence of ligand; ii) in 0.8 mM glutamate; iii) in the presence of a nanobody; or iv) in a combination of 0.8 mM glutamate and the nanobody. […]

[2] = tested on: mGluR5; assay: Single molecule FRET (smFRET) of SNAP-mGluR5 dimers, TIRF microscopy; assay type: biochemical; details: 0.8 mM glutamate; absence of ligand ~0.5
Experimental: as §1

T1 sequence (P41594 21-1212): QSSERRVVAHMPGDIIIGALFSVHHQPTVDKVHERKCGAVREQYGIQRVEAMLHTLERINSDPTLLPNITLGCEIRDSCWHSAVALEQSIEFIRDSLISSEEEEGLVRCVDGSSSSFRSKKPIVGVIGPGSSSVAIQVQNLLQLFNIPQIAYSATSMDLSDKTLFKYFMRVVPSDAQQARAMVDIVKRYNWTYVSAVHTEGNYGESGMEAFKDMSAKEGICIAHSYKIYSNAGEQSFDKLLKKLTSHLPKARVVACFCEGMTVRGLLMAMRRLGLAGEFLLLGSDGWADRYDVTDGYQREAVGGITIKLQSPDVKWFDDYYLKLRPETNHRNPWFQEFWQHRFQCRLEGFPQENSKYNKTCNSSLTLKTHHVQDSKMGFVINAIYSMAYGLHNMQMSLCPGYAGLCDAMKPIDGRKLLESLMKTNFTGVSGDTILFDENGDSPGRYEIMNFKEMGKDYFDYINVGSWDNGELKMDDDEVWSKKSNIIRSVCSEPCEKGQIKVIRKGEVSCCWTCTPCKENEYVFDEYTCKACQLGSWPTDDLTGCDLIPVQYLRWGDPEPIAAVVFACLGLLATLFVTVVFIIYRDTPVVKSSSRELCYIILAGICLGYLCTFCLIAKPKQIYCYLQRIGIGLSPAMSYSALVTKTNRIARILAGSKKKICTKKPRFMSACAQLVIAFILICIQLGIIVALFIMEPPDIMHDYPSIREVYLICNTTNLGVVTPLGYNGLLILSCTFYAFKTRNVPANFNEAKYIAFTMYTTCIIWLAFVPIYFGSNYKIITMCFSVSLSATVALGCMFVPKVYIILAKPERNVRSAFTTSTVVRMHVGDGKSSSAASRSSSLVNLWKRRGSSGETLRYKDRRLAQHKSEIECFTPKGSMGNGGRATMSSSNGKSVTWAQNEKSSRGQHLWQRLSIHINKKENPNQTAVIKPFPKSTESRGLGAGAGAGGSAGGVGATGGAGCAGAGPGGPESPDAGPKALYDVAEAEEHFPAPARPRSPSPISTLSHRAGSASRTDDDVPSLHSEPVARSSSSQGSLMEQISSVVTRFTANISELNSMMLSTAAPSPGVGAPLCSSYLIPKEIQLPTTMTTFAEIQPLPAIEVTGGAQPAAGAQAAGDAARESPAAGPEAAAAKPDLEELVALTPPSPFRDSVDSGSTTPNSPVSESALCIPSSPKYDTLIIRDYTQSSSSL

- activation of calcium waves [1]: activates calcium waves
Compound: N[C@@H](CCC(=O)O)C(=O)O [glutamate]
- FRET level [2]: ~0.3
